Drawing on ChEMBL document CHEMBL1909046, “DrugMatrix in vitro pharmacology data”, this text covers IC50 and Ki for three molecules.

Cannabinoid receptor 1, sequence (P21554 whole entry): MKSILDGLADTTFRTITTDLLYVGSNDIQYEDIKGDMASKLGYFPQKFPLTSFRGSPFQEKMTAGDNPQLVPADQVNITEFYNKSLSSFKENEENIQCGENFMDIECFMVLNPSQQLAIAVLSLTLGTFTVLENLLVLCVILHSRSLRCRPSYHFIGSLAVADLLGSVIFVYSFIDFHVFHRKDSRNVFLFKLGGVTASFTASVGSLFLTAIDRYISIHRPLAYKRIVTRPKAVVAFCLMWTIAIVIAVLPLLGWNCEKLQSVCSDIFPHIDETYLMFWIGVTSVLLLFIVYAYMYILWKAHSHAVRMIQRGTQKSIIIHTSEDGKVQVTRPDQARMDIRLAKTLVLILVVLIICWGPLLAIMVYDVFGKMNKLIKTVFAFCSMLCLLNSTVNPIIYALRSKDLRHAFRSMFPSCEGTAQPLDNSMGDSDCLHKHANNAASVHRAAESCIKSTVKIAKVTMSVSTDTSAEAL
Kappa-type opioid receptor, sequence (P41145 whole entry): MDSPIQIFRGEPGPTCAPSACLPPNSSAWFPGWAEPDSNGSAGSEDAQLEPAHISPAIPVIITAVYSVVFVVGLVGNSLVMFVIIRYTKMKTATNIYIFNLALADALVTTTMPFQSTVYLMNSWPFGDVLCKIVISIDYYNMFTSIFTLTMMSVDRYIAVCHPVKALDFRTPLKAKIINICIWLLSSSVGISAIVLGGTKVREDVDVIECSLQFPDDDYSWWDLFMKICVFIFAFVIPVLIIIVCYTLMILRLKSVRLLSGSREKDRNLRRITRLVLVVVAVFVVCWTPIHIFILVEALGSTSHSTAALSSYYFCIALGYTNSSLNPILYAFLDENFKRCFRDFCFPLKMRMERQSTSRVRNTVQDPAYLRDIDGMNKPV
Beta-2 adrenergic receptor, sequence (P07550 whole entry): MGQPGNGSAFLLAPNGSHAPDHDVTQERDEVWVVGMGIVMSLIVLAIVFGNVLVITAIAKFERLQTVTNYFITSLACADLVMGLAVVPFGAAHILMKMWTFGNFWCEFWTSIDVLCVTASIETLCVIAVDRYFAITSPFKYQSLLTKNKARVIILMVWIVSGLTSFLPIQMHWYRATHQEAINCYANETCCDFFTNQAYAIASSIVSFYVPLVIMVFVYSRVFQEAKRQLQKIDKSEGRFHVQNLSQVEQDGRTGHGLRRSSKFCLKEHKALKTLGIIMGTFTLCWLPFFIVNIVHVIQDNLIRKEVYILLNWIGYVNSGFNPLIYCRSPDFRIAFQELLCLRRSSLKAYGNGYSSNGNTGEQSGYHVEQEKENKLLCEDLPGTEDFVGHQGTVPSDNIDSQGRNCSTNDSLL

The first data set has as its target T1, Alpha-2C adrenergic receptor (Homo sapiens, UniProt P18825).
T1 sequence (P18825 whole entry): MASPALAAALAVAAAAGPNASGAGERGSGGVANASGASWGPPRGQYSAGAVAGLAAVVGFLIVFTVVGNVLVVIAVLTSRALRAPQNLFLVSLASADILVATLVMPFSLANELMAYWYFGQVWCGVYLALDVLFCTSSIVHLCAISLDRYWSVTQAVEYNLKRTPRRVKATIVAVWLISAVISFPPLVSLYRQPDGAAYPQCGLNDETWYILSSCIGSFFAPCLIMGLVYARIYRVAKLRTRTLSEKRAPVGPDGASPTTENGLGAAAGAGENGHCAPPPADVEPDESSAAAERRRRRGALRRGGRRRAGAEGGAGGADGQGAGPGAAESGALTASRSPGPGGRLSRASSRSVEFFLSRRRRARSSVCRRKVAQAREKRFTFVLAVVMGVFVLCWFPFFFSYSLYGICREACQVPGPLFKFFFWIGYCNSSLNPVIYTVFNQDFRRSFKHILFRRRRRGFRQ
Briefly: DRUGMATRIX: Adrenergic Alpha-2C radioligand binding (ligand: [3H] MK-912). The class given is cell membranes, Sf9, Membrane. The note with it: sf9.
Turning to `OCc1ccccc1` [BENZYL ALCOHOL], the IC50 result is given as “Not Active”.

As for `C=C1C(=O)O[C@@H]2C3O[C@]3(C)CC/C=C(\C)CC[C@@H]12` (some centres not stated), the IC50 result is listed as “Not Active”.

Consider `CCOC(=O)c1ccc(N)cc1` [BENZOCAINE], for which the IC50 result is given as “Not Active”.

The target of a further data set is Sodium-dependent noradrenaline transporter (Homo sapiens, UniProt P23975). The data set can be described thus: DRUGMATRIX: Norepinephrine Transporter radioligand binding (ligand: [125I] RTI-55). It counts as cell membranes, MDCK, Membrane. The following applies: mdck; Not Active = under 50% inhibition at 10 µM.
Sodium-dependent noradrenaline transporter, sequence (P23975 whole entry): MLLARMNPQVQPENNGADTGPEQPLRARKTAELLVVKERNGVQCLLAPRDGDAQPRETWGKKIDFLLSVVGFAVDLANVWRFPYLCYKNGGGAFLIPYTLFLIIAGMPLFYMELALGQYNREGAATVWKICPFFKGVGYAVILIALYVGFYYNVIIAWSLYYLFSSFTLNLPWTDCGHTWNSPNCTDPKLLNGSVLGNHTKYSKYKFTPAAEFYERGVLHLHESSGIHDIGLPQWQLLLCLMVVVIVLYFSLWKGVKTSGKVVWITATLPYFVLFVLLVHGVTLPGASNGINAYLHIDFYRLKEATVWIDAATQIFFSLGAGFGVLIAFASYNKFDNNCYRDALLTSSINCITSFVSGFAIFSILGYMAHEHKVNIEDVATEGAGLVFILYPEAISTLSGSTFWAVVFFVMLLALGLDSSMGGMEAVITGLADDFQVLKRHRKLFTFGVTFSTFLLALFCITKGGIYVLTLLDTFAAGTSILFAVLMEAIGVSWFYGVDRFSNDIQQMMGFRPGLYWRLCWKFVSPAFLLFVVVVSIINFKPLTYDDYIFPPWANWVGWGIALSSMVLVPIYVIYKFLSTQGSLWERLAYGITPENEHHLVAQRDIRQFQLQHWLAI
Consider `OCc1ccccc1` [BENZYL ALCOHOL], for which the IC50 result is given as “Not Active”.

In the case of `C=C1C(=O)O[C@@H]2C3O[C@]3(C)CC/C=C(\C)CC[C@@H]12` (some centres not stated), the IC50 result is on record as “Not Active”.

Regarding `CCOC(=O)c1ccc(N)cc1` [BENZOCAINE], the IC50 entry is recorded as “Not Active”.

The target in another data set is Protein phosphatase 3 catalytic subunit alpha (Homo sapiens, UniProt Q08209). Further details: species or system Escherichia coli.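 Further: inhibition of calcineurin (PP2B) enzyme activity, measured with DiFMUP as the substrate; in other assays of this panel Not Active means under 50% inhibition at 10 µM.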
Conditions: not given
As to `OCc1ccccc1` [BENZYL ALCOHOL], the IC50 entry was “Not Active”.

For `C=C1C(=O)O[C@@H]2C3O[C@]3(C)CC/C=C(\C)CC[C@@H]12` (some centres not stated), the IC50 entry was “Not Active”.

With `CCOC(=O)c1ccc(N)cc1` [BENZOCAINE], the IC50 result is reported as “Not Active”.

A further data set deals with T2, 5-hydroxytryptamine receptor 1A (Rattus norvegicus, UniProt P19327).
T2 sequence (P19327 whole entry): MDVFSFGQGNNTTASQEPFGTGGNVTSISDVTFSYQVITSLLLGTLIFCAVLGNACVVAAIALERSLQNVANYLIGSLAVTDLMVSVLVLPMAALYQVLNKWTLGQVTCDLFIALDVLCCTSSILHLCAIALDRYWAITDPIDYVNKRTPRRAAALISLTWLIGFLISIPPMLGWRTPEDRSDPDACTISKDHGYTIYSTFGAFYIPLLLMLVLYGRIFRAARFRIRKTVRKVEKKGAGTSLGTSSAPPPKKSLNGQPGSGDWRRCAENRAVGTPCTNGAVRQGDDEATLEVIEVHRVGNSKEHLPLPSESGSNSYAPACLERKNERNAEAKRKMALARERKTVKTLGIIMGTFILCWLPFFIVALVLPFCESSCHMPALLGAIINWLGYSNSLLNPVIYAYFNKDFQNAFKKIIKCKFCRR
It counts as cell membranes, CHO-K1, Membrane. The note with it: cho-k1.
For `OCc1ccccc1` [BENZYL ALCOHOL], the IC50 entry is “Not Active”.

Consider `C=C1C(=O)O[C@@H]2C3O[C@]3(C)CC/C=C(\C)CC[C@@H]12` (some centres not stated), for which the IC50 result is “Not Active”.

In the case of `CCOC(=O)c1ccc(N)cc1` [BENZOCAINE], the IC50 entry is “Not Active”.

Another data set has as its target Cannabinoid receptor 1 (Homo sapiens, UniProt P21554). It counts as cell membranes, Membrane. The note with it: chem-1. Further: in other assays of this panel Not Active means under 50% inhibition at 10 µM.
Consider `OCc1ccccc1` [BENZYL ALCOHOL], for which the IC50 result was “Not Active”.

Take `C=C1C(=O)O[C@@H]2C3O[C@]3(C)CC/C=C(\C)CC[C@@H]12` (some centres not stated): the IC50 result is recorded as “Not Active”.

In the case of `CCOC(=O)c1ccc(N)cc1` [BENZOCAINE], the IC50 entry is recorded as “Not Active”.

The next data set has as its target Beta-2 adrenergic receptor (Homo sapiens, UniProt P07550). The data set can be described thus: DRUGMATRIX: Adrenergic beta2 radioligand binding (ligand: [3H] CGP-12177). The class given is cell membranes, Membrane. The note with it: cho; Not Active = under 50% inhibition at 10 µM.
On to `OCc1ccccc1` [BENZYL ALCOHOL], for which the IC50 entry is “Not Active”.

On to `C=C1C(=O)O[C@@H]2C3O[C@]3(C)CC/C=C(\C)CC[C@@H]12` (some centres not stated), for which the IC50 result is recorded as “Not Active”.

Take `CCOC(=O)c1ccc(N)cc1` [BENZOCAINE]: the IC50 result is “Not Active”.

In the next data set the target is T3, Endothelin-1 receptor (Homo sapiens, UniProt P25101). Further: in other assays of this panel Not Active means under 50% inhibition at 10 µM.
T3 sequence (P25101 whole entry): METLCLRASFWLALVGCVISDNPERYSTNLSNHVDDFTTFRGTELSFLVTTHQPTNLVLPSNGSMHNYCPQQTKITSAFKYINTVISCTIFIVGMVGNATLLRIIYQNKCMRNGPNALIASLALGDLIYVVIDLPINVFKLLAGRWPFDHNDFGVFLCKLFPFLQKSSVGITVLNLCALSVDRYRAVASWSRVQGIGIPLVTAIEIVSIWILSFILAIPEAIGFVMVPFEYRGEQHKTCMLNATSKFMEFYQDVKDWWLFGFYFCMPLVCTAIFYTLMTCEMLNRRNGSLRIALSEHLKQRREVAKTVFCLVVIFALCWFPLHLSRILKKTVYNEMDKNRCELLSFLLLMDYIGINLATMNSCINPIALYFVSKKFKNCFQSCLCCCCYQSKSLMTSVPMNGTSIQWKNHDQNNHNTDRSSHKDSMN
It counts as cell membranes, Membrane. The note with it: cho-k1.
In the case of `OCc1ccccc1` [BENZYL ALCOHOL], the IC50 result is reported as “Not Active”.

In the case of `C=C1C(=O)O[C@@H]2C3O[C@]3(C)CC/C=C(\C)CC[C@@H]12` (some centres not stated), the IC50 entry is “Not Active”.

`CCOC(=O)c1ccc(N)cc1` [BENZOCAINE]: the IC50 entry is given as “Not Active”.

A further data set has as its target T4, Muscarinic acetylcholine receptor M2 (Homo sapiens, UniProt P08172). Further: in other assays of this panel Not Active means under 50% inhibition at 10 µM.
T4 sequence (P08172 whole entry): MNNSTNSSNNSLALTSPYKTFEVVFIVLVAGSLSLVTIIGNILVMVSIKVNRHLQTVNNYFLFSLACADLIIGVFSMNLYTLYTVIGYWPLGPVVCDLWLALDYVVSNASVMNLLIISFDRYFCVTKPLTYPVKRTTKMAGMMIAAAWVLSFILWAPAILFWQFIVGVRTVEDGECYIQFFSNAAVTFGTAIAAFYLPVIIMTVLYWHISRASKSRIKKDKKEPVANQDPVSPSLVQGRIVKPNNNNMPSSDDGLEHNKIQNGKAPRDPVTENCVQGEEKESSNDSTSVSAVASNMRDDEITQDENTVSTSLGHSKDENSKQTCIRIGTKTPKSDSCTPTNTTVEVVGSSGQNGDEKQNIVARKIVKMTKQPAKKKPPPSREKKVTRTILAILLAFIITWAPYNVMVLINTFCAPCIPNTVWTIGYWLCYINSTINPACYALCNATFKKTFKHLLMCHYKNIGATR
It counts as cell membranes, CHO-K1, Membrane. The note with it: cho-k1.
Consider `OCc1ccccc1` [BENZYL ALCOHOL], for which the IC50 entry was “Not Active”.

In the case of `C=C1C(=O)O[C@@H]2C3O[C@]3(C)CC/C=C(\C)CC[C@@H]12` (some centres not stated), the IC50 result is on record as “Not Active”.

As to `CCOC(=O)c1ccc(N)cc1` [BENZOCAINE], the IC50 result is reported as “Not Active”.

Tested on in the next data set: not listed separately
The data set can be described thus: DRUGMATRIX: Atrial Natriuretic Factor (ANF) radioligand binding (ligand: [125I] ANF (rat)). It counts as cell membranes, Cavia porcellus, Dunkin-Hartley, Adrenal gland, Membrane. The following applies: Not Active = under 50% inhibition at 10 µM.
Take `OCc1ccccc1` [BENZYL ALCOHOL]: the IC50 result is “Not Active” and the Ki result is given as “Not Active”.

Turning to `C=C1C(=O)O[C@@H]2C3O[C@]3(C)CC/C=C(\C)CC[C@@H]12` (some centres not stated), the IC50 result is listed as “Not Active” and the Ki result is on record as “Not Active”.

Turning to `CCOC(=O)c1ccc(N)cc1` [BENZOCAINE], the IC50 entry is recorded as “Not Active” and the Ki result is “Not Active”.

Tested on in another data set: not listed separately
Briefly: DRUGMATRIX: Calcium Channel Type L, Dihydropyridine radioligand binding (ligand: [3H] Nitrendipine). The class given is cell membranes, Rattus norvegicus, Wistar, Cerebral cortex, Membrane. The following applies: Not Active = under 50% inhibition at 10 µM.
For the molecule `OCc1ccccc1` [BENZYL ALCOHOL], the IC50 result is given as “Not Active” and the Ki result is recorded as “Not Active”.

Regarding `C=C1C(=O)O[C@@H]2C3O[C@]3(C)CC/C=C(\C)CC[C@@H]12` (some centres not stated), the IC50 result is on record as “Not Active” and the Ki result is “Not Active”.

In the case of `CCOC(=O)c1ccc(N)cc1` [BENZOCAINE], the IC50 entry is listed as “Not Active” and the Ki entry is on record as “Not Active”.

For another data set, the target named is Cytochrome P450 2C9 (Homo sapiens, UniProt P11712). The note with it: bti-tn-5b1-4. Further: in other assays of this panel Not Active means under 50% inhibition at 10 µM.
Cytochrome P450 2C9, sequence (P11712 whole entry): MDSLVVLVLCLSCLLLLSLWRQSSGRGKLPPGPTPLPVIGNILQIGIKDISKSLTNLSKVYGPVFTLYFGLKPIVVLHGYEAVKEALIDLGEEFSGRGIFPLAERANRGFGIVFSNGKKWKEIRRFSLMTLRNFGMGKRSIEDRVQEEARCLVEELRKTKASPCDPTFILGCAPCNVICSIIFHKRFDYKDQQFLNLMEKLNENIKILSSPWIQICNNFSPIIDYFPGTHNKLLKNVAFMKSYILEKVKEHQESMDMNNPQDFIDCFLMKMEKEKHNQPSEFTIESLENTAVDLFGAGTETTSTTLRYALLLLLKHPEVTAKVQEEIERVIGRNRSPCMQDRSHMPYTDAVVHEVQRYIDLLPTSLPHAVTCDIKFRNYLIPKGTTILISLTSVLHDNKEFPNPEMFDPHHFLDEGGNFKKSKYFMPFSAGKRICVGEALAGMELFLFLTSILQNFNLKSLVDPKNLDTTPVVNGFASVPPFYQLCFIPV
`OCc1ccccc1` [BENZYL ALCOHOL]: the IC50 entry is reported as “Not Active” and the Ki result was “Not Active”.

Consider `C=C1C(=O)O[C@@H]2C3O[C@]3(C)CC/C=C(\C)CC[C@@H]12` (some centres not stated), for which the IC50 entry is recorded as “Not Active” and the Ki entry was “Not Active”.

For the molecule `CCOC(=O)c1ccc(N)cc1` [BENZOCAINE], the IC50 result was “Not Active” and the Ki result was “Not Active”.

Tested on in another data set: not listed separately
Briefly: DRUGMATRIX: Phosphodiesterase PDE3 enzyme inhibition (substrate: [3H]cAMP + cAMP). The class given is tissue-based, Homo sapiens. The following applies: platelet; Not Active = under 50% inhibition at 10 µM.
Consider `OCc1ccccc1` [BENZYL ALCOHOL], for which the IC50 result was “Not Active” and the Ki entry is “Not Active”.

`C=C1C(=O)O[C@@H]2C3O[C@]3(C)CC/C=C(\C)CC[C@@H]12` (some centres not stated): the IC50 result was “Not Active” and the Ki entry is “Not Active”.

For the molecule `CCOC(=O)c1ccc(N)cc1` [BENZOCAINE], the IC50 entry was “Not Active” and the Ki entry is reported as “Not Active”.

Another data set has as its target Kappa-type opioid receptor (Homo sapiens, UniProt P41145). Briefly: DRUGMATRIX: Opiate kappa (OP2, KOP) radioligand binding (ligand: [3H] Diprenorphine). The class given is cell membranes, HEK293, Membrane. The note with it: hek293; Not Active = under 50% inhibition at 10 µM.
For the molecule `OCc1ccccc1` [BENZYL ALCOHOL], the IC50 result is recorded as “Not Active”.

As for `C=C1C(=O)O[C@@H]2C3O[C@]3(C)CC/C=C(\C)CC[C@@H]12` (some centres not stated), the IC50 entry is listed as “Not Active”.

`CCOC(=O)c1ccc(N)cc1` [BENZOCAINE]: the IC50 result is reported as “Not Active”.

Tested on in the next data set: not listed separately
Briefly: DRUGMATRIX: GABAA, Flunitrazepam, Central radioligand binding (ligand: [3H] Flunitrazepam). It counts as cell membranes, Rattus norvegicus, Wistar, Brain, Membrane. The note with it: Not Active = under 50% inhibition at 10 µM.
As for `OCc1ccccc1` [BENZYL ALCOHOL], the IC50 result is recorded as “Not Active” and the Ki entry is on record as “Not Active”.

With `C=C1C(=O)O[C@@H]2C3O[C@]3(C)CC/C=C(\C)CC[C@@H]12` (some centres not stated), the IC50 entry was “Not Active” and the Ki entry is “Not Active”.

Take `CCOC(=O)c1ccc(N)cc1` [BENZOCAINE]: the IC50 entry is “Not Active” and the Ki result is “Not Active”.
